Test: excess molar enthalpy (molar enthalpy of mixing); xn = mol fraction of the nth substance listed
Conditions: Liquid, Flow calorimetry

COC(=O)OC [dimethyl carbonate] + CO
Conditions	excess molar enthalpy [kcal/mol]
298.15 K, 1000 kPa, x2 = 0.25	0.2729
298.15 K, 1000 kPa, x2 = 0.3	0.2933
298.15 K, 1000 kPa, x2 = 0.35	0.3075
298.15 K, 1000 kPa, x2 = 0.4	0.315
298.15 K, 1000 kPa, x2 = 0.45	0.3163
298.15 K, 1000 kPa, x2 = 0.5	0.313
298.15 K, 1000 kPa, x2 = 0.55	0.3034
298.15 K, 1000 kPa, x2 = 0.6	0.2901
298.15 K, 1000 kPa, x2 = 0.65	0.2735
298.15 K, 1000 kPa, x2 = 0.7	0.2508
298.15 K, 1000 kPa, x2 = 0.75	0.2229
298.15 K, 1000 kPa, x2 = 0.8	0.1931
313.15 K, 100 kPa, x2 = 0.048	0.0748
313.15 K, 100 kPa, x2 = 0.1	0.1539
313.15 K, 100 kPa, x2 = 0.1492	0.2119
313.15 K, 100 kPa, x2 = 0.2014	0.2621
313.15 K, 100 kPa, x2 = 0.2506	0.2976
313.15 K, 100 kPa, x2 = 0.302	0.3238
313.15 K, 100 kPa, x2 = 0.3503	0.341
313.15 K, 100 kPa, x2 = 0.4001	0.3506
313.15 K, 100 kPa, x2 = 0.451	0.3535
313.15 K, 100 kPa, x2 = 0.4985	0.3472
313.15 K, 100 kPa, x2 = 0.5501	0.3409
313.15 K, 100 kPa, x2 = 0.6014	0.3255
313.15 K, 100 kPa, x2 = 0.6489	0.3073
313.15 K, 100 kPa, x2 = 0.6987	0.2839
313.15 K, 100 kPa, x2 = 0.7499	0.254
313.15 K, 100 kPa, x2 = 0.7992	0.2162
313.15 K, 100 kPa, x2 = 0.851	0.1699
313.15 K, 100 kPa, x2 = 0.95	0.0561
313.15 K, 1000 kPa, x2 = 0.0477	0.08505
313.15 K, 1000 kPa, x2 = 0.0994	0.158
313.15 K, 1000 kPa, x2 = 0.1484	0.2155
313.15 K, 1000 kPa, x2 = 0.2003	0.2637
313.15 K, 1000 kPa, x2 = 0.2493	0.2969
313.15 K, 1000 kPa, x2 = 0.3006	0.3229
313.15 K, 1000 kPa, x2 = 0.3487	0.3403
313.15 K, 1000 kPa, x2 = 0.3985	0.3519
313.15 K, 1000 kPa, x2 = 0.4493	0.3546
313.15 K, 1000 kPa, x2 = 0.5006	0.3496
313.15 K, 1000 kPa, x2 = 0.5485	0.3404
313.15 K, 1000 kPa, x2 = 0.5998	0.3247
313.15 K, 1000 kPa, x2 = 0.6504	0.3053
313.15 K, 1000 kPa, x2 = 0.7001	0.2815
313.15 K, 1000 kPa, x2 = 0.7512	0.2509
313.15 K, 1000 kPa, x2 = 0.8005	0.2149
313.15 K, 1000 kPa, x2 = 0.8501	0.1691
313.15 K, 1000 kPa, x2 = 0.9497	0.0534
313.15 K, 10000 kPa, x2 = 0.0477	0.08818
313.15 K, 10000 kPa, x2 = 0.0994	0.1621
313.15 K, 10000 kPa, x2 = 0.1484	0.2188
313.15 K, 10000 kPa, x2 = 0.2003	0.2659
313.15 K, 10000 kPa, x2 = 0.2493	0.2989
313.15 K, 10000 kPa, x2 = 0.3006	0.3252
313.15 K, 10000 kPa, x2 = 0.3487	0.3416
313.15 K, 10000 kPa, x2 = 0.3985	0.3512
313.15 K, 10000 kPa, x2 = 0.4493	0.3536
313.15 K, 10000 kPa, x2 = 0.5006	0.3509
313.15 K, 10000 kPa, x2 = 0.5485	0.3423
313.15 K, 10000 kPa, x2 = 0.5998	0.3285
313.15 K, 10000 kPa, x2 = 0.6504	0.3088
313.15 K, 10000 kPa, x2 = 0.7001	0.2842
313.15 K, 10000 kPa, x2 = 0.7512	0.2511
313.15 K, 10000 kPa, x2 = 0.8005	0.2158
313.15 K, 10000 kPa, x2 = 0.8501	0.1733
313.15 K, 10000 kPa, x2 = 0.9497	0.0561
328.15 K, 1000 kPa, x2 = 0.05	0.09171
328.15 K, 1000 kPa, x2 = 0.1	0.1733
328.15 K, 1000 kPa, x2 = 0.15	0.2349
328.15 K, 1000 kPa, x2 = 0.2	0.2867
328.15 K, 1000 kPa, x2 = 0.25	0.3264
328.15 K, 1000 kPa, x2 = 0.3	0.3555
328.15 K, 1000 kPa, x2 = 0.35	0.375
328.15 K, 1000 kPa, x2 = 0.4	0.3883
328.15 K, 1000 kPa, x2 = 0.45	0.3934
328.15 K, 1000 kPa, x2 = 0.5	0.3894
328.15 K, 1000 kPa, x2 = 0.55	0.3796
328.15 K, 1000 kPa, x2 = 0.6	0.3638
328.15 K, 1000 kPa, x2 = 0.65	0.3412
328.15 K, 1000 kPa, x2 = 0.7	0.3139
328.15 K, 1000 kPa, x2 = 0.75	0.279
328.15 K, 1000 kPa, x2 = 0.8	0.2383
328.15 K, 1000 kPa, x2 = 0.8509	0.1886
328.15 K, 1000 kPa, x2 = 0.95	0.0625

COC(=O)OC [dimethyl carbonate] + CC(C)O
Conditions	excess molar enthalpy [kcal/mol]
298.15 K, 1000 kPa, x1 = 0.05	0.1201
298.15 K, 1000 kPa, x1 = 0.1	0.222
298.15 K, 1000 kPa, x1 = 0.15	0.3028
298.15 K, 1000 kPa, x1 = 0.2	0.3695
298.15 K, 1000 kPa, x1 = 0.25	0.4209
298.15 K, 1000 kPa, x1 = 0.3	0.4599
298.15 K, 1000 kPa, x1 = 0.35	0.4899
298.15 K, 1000 kPa, x1 = 0.4	0.5097
298.15 K, 1000 kPa, x1 = 0.45	0.5212
298.15 K, 1000 kPa, x1 = 0.5	0.5264
298.15 K, 1000 kPa, x1 = 0.55	0.5191
298.15 K, 1000 kPa, x1 = 0.6	0.5048
298.15 K, 1000 kPa, x1 = 0.65	0.4805
298.15 K, 1000 kPa, x1 = 0.7	0.4459
298.15 K, 1000 kPa, x1 = 0.75	0.4012
298.15 K, 1000 kPa, x1 = 0.8	0.3425
298.15 K, 1000 kPa, x1 = 0.95	0.1068
313.15 K, 100 kPa, x1 = 0.0483	0.1117
313.15 K, 100 kPa, x1 = 0.0998	0.2227
313.15 K, 100 kPa, x1 = 0.1507	0.3146
313.15 K, 100 kPa, x1 = 0.2011	0.388
313.15 K, 100 kPa, x1 = 0.2509	0.4473
313.15 K, 100 kPa, x1 = 0.3002	0.4924
313.15 K, 100 kPa, x1 = 0.3489	0.5277
313.15 K, 100 kPa, x1 = 0.4005	0.5535
313.15 K, 100 kPa, x1 = 0.4515	0.5679
313.15 K, 100 kPa, x1 = 0.4986	0.5718
313.15 K, 100 kPa, x1 = 0.5485	0.5651
313.15 K, 100 kPa, x1 = 0.6011	0.5502
313.15 K, 100 kPa, x1 = 0.6498	0.5244
313.15 K, 100 kPa, x1 = 0.7012	0.4887
313.15 K, 100 kPa, x1 = 0.7488	0.4419
313.15 K, 100 kPa, x1 = 0.8486	0.3137
313.15 K, 100 kPa, x1 = 0.9007	0.2235
313.15 K, 100 kPa, x1 = 0.9492	0.1156
313.15 K, 1000 kPa, x1 = 0.0483	0.1108
313.15 K, 1000 kPa, x1 = 0.0998	0.2231
313.15 K, 1000 kPa, x1 = 0.1507	0.3136
313.15 K, 1000 kPa, x1 = 0.201	0.3871
313.15 K, 1000 kPa, x1 = 0.2508	0.4465
313.15 K, 1000 kPa, x1 = 0.3	0.4932
313.15 K, 1000 kPa, x1 = 0.3487	0.5283
313.15 K, 1000 kPa, x1 = 0.4003	0.5534
313.15 K, 1000 kPa, x1 = 0.4513	0.5642
313.15 K, 1000 kPa, x1 = 0.4984	0.5678
313.15 K, 1000 kPa, x1 = 0.5516	0.5622
313.15 K, 1000 kPa, x1 = 0.6009	0.5476
313.15 K, 1000 kPa, x1 = 0.6497	0.5221
313.15 K, 1000 kPa, x1 = 0.7011	0.486
313.15 K, 1000 kPa, x1 = 0.7487	0.4405
313.15 K, 1000 kPa, x1 = 0.8486	0.3109
313.15 K, 1000 kPa, x1 = 0.9007	0.2209
313.15 K, 1000 kPa, x1 = 0.9491	0.1173
313.15 K, 10000 kPa, x1 = 0.0517	0.1095
313.15 K, 10000 kPa, x1 = 0.0992	0.212
313.15 K, 10000 kPa, x1 = 0.1499	0.303
313.15 K, 10000 kPa, x1 = 0.2	0.3768
313.15 K, 10000 kPa, x1 = 0.2497	0.4355
313.15 K, 10000 kPa, x1 = 0.2988	0.4813
313.15 K, 10000 kPa, x1 = 0.3508	0.5177
313.15 K, 10000 kPa, x1 = 0.3989	0.5407
313.15 K, 10000 kPa, x1 = 0.4499	0.5557
313.15 K, 10000 kPa, x1 = 0.5003	0.5598
313.15 K, 10000 kPa, x1 = 0.5501	0.5537
313.15 K, 10000 kPa, x1 = 0.5995	0.5393
313.15 K, 10000 kPa, x1 = 0.6515	0.5131
313.15 K, 10000 kPa, x1 = 0.6998	0.48
313.15 K, 10000 kPa, x1 = 0.7507	0.4325
313.15 K, 10000 kPa, x1 = 0.8011	0.3729
313.15 K, 10000 kPa, x1 = 0.8509	0.3054
313.15 K, 10000 kPa, x1 = 0.9001	0.2228
313.15 K, 10000 kPa, x1 = 0.9488	0.1259
328.15 K, 1000 kPa, x1 = 0.05	0.1293
328.15 K, 1000 kPa, x1 = 0.1	0.2339
328.15 K, 1000 kPa, x1 = 0.15	0.3279
328.15 K, 1000 kPa, x1 = 0.2	0.4052
328.15 K, 1000 kPa, x1 = 0.25	0.4674
328.15 K, 1000 kPa, x1 = 0.3	0.5156
328.15 K, 1000 kPa, x1 = 0.35	0.5557
328.15 K, 1000 kPa, x1 = 0.4	0.5822
328.15 K, 1000 kPa, x1 = 0.45	0.5962
328.15 K, 1000 kPa, x1 = 0.5	0.6034
328.15 K, 1000 kPa, x1 = 0.55	0.5992
328.15 K, 1000 kPa, x1 = 0.6	0.5851
328.15 K, 1000 kPa, x1 = 0.65	0.5559
328.15 K, 1000 kPa, x1 = 0.7	0.5128
328.15 K, 1000 kPa, x1 = 0.75	0.4679
328.15 K, 1000 kPa, x1 = 0.8	0.4034
328.15 K, 1000 kPa, x1 = 0.85	0.3257
328.15 K, 1000 kPa, x1 = 0.9	0.2299
328.15 K, 1000 kPa, x1 = 0.95	0.1163
